Assay type in all cases: in vitro ADME
A short description of data set [1]: Human microsome stability assay. Conditions: 1 μM test compound, 0.5 mg/mL protein. On the procedure:
The human microsomal stability assay is used for early assessment of metabolic stability of a test compound in human liver microsomes.
Human liver microsomes (Cat. NO.: 452117, Corning, USA; Cat. NO.: H2610, Xenotech, USA) were preincubated with test compound for 10 minutes at 37° C. in 100 mM potassium phosphate buffer, pH 7.4. The reactions were initiated by adding NADPH regenerating system. The final incubation mixtures contained 1 μM test compound, 0.5 mg/mL liver microsomal protein, 1 mM MgCl2, 1 mM NADP, 1 unit/mL isocitric dehydrogenase and 6 mM isocitric acid in 100 mM potassium phosphate buffer, pH 7.4. After incubation times of 0, 3, 6, 9, 15 and 30 minutes at 37° C., 300 μL of cold ACN (including internal standard) was added to 100 μL incubation mixture to terminate the reaction. Following precipitation and centrifugation, the amount of compound remaining in the samples were determined by LC-MS/MS. Controls of no NADPH regenerating system at zero and 30 minutes were also prepared and analyzed. The results were categorized as: low (<7.0 mL/min/kg), medium (7.0˜16.2 mL/min/kg) and high (16.2-23.2 mL/min/kg).

For the next data set, the target named is T1, CYP2C9 (Homo sapiens, UniProt P11712).
T1 construct: tissue BD-Gentest 452117; host or cells: human liver microsomes
Nature of the data set: CYP inhibition assay in human liver microsome, CYP2C9. The settings on record: HLM, diclofenac substrate; for inhibition at 5 min, 10 µM: human, liver microsomes, probe diclofenac, read-out: CYP inhibition % @10 uM (2C9). On the procedure: (§1) This is a high throughput screening assay used for assessment of reversible inhibition of CYP2C9, CYP2D6, and CYP3A4 activity of test compounds in human liver microsome (HLM) in early discovery stage.
(§2) 10 mM DMSO stock solutions of test compounds were diluted in DMSO to generate 2 mM intermediate stock solution. 250 nL of intermediate stock solution were transferred in duplicate into 3 separate 384 well microtitre plates (assay-ready plates). A mixture of HLM and each substrate was made up. 45 μL of HLM substrate mix was then transferred to each well of an assay ready plate and mixed. The negative (solvent) and positive controls (standard inhibitor for each CYP) were included in each assay ready plate. The assay ready plate was warmed to 37° C. in an incubator over 10 minutes. 5 μL pre-warmed NADPH regenerating system was added to each incubation well to start the reaction. Final incubation volume was 50 μL. The assay plate then was placed back in the 37° C. incubator. After 5 minutes incubation (10 minutes for CYP2D6), incubates were quenched by addition of 50 μL quench reagent containing internal standards (400 ng/mL 13C6-4′-OH-Diclofenac, 20 ng/mL D3-Dextrorphan and 20 ng/mL D4-1′OH-Midazolam in acetonitrile). The supernatants were collected for RapidFire/MS/MS analysis.
(§3) RapidFire online solid phase extraction/sample injection system (Agilent) coupled with API4000 triple quadrupole mass spectrometer (AB Sciex) were used for sample analysis. The mobile phase composed of acetonitrile and water supplemented with 0.1% formic acid. A C4 solid phase extraction cartridge is used for sample separation. MS detection is achieved in positive ion MRM mode.
(§4) Peak areas for substrate, metabolite and internal standard are determined using the
(§5) RapidFire integrator software (version 3.6.12009.12296). Peak area ratios (PAR) of metabolite and internal standard (stable-labelled metabolite) are then calculated. The measurement window for each experiment is then defined:
(§6) PAR (0% activity)=average PAR for all incubations containing concentrated inhibitor;
(§7) Par (100% activity)=average PAR for all incubations containing no inhibitor (DMSO controls);
(§8) % Activity (test inhibitor) =[PAR(test inhibitor)-PAR(0% activity)][PAR(100% activity)-PAR(0% activity)];
(§9) % Inhibition (test inhibitor)=100-% Activity (test inhibitor).
(§10) Percentage inhibition data are then reported, in duplicate, for the 3 CYP enzymes.
On the technique in general: Liver microsomes are a subcellular fraction often used to study metabolism.

The target of a further data set is T2, CYP2D6 (Homo sapiens, UniProt P10635).
T2 construct: tissue BD-Gentest 452117; host or cells: human liver microsomes
Nature of the data set: CYP inhibition assay in human liver microsome, CYP2D6. The settings on record: HLM, dextromethorphan substrate; for inhibition at 10 min, 10 µM: human, liver microsomes, probe dextromethorphan, read-out: CYP inhibition % @10 uM (2D6). On the procedure: as §1, §2, §3, §4, §5, §6, §7, §8, §9, §10

The next data set deals with T3, CYP3A4 (Homo sapiens, UniProt P08684).
T3 construct: tissue BD-Gentest 452117; host or cells: human liver microsomes
Nature of the data set: CYP inhibition assay in human liver microsome, CYP3A4. The settings on record: HLM, midazolam substrate; for inhibition at 5 min, 10 µM: human, liver microsomes, probe midazolam, read-out: CYP inhibition % @10 uM (3A4). On the procedure:
as §1, §2, §3, §4, §5, §6, §7, §8, §9, §10

T2 sequence (P10635 whole entry): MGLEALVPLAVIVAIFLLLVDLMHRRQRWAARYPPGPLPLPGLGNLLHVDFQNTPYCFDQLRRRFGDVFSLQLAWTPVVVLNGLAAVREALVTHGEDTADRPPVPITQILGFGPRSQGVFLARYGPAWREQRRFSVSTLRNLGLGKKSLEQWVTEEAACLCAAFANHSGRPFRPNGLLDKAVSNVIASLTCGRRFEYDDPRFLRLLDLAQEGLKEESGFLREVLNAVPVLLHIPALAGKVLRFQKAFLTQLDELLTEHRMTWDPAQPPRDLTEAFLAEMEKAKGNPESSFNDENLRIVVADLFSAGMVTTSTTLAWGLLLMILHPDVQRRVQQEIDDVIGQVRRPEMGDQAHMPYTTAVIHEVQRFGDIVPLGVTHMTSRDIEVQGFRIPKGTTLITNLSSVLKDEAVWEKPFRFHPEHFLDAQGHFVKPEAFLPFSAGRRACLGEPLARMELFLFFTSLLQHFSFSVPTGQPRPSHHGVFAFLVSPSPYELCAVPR
T1 sequence (P11712 whole entry): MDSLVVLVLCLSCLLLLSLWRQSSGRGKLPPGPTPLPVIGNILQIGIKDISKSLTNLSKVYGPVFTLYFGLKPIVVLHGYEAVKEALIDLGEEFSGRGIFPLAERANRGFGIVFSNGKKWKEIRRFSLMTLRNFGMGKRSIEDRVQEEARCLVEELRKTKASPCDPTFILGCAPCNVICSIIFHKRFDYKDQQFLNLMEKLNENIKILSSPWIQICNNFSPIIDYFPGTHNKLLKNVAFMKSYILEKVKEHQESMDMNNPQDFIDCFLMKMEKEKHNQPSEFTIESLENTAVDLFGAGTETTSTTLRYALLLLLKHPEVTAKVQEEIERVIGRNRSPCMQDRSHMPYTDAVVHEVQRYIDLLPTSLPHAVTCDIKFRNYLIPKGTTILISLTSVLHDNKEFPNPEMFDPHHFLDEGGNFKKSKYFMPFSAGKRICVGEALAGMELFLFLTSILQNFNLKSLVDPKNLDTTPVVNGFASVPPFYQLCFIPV
T3 sequence (P08684 whole entry): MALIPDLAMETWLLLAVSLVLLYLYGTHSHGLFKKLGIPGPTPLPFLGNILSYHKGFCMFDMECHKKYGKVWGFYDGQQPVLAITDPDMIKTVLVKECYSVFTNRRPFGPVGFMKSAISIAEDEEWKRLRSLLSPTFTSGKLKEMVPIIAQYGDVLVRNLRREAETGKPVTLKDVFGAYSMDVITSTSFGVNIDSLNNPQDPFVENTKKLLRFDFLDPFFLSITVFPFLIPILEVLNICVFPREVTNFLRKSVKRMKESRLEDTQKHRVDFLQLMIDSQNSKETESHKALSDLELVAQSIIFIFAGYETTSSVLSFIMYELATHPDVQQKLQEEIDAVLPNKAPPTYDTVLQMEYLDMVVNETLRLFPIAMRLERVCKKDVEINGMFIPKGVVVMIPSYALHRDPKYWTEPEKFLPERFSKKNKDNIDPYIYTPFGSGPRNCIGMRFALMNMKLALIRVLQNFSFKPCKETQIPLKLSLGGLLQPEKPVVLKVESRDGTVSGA

Consider `C[C@@H]1CN(c2ccc(I)c3ncccc23)C[C@H](C(=O)NC2CCN(C)CC2)O1` [Example 38, (2R,6R)-4-(8-iodo-5-quinolyl)-6-methyl-N-(1-methyl-4-piperidyl)morpholine-2-carboxamide], for which the “clearance in human liver microsomes” value in data set [1] was 7.04 mL/min/kg. Moreover, the values for the inhibition at 5 min, 10 µM at CYP2C9 and at CYP3A4 were -3% and -2%, respectively. Further, the inhibition at 10 min, 10 µM at CYP2D6 is -1%.

For `C[C@@H]1CN(c2ccc(C(F)(F)F)c3ncccc23)C[C@H](C(=O)N[C@@H]2CNC[C@@H]2F)O1` (single isomer, unassigned) [Example 2A], in data set [1], the “clearance in human liver microsomes” value was 6.15 mL/min/kg. The inhibition at 5 min, 10 µM on CYP2C9 came out at 26%; at CYP3A4 it was 5%. On CYP2D6, the inhibition at 10 min, 10 µM came out at 9%.

For the compound `C[C@@H]1CN(c2ccc(C(F)(F)F)c3ncccc23)C[C@H](C(=O)NC2C3CCC2CNC3)O1` (stereo partly drawn) [Example 31, (2R,6R)-N-(3-azabicyclo[3.2.1]octan-8-yl)-6-methyl-4-[8-(trifluoromethyl)-5-quinolyl]morpholine-2-carboxamide], the “clearance in human liver microsomes” value in data set [1] came to 6.15 mL/min/kg. Moreover, the results for the inhibition at 5 min, 10 µM at CYP2C9 and at CYP3A4 were -1% and -29%, respectively. Further, the inhibition at 10 min, 10 µM at CYP2D6 was determined as 2%.

As to `C[C@@H]1CN(c2ccc(C(F)(F)F)c3ncccc23)C[C@H](C(=O)NCC(C)(C)N)O1` [Example 6, (2R,6R)-N-(2-amino-2-methyl-propyl)-6-methyl-4-[8-(trifluoromethyl)-5-quinolyl]morpholine-2-carboxamide], the “clearance in human liver microsomes” value in data set [1] was found to be 6.15 mL/min/kg. Moreover, the values for the inhibition at 5 min, 10 µM on CYP2C9 and on CYP3A4 were -13% and -10%, respectively. Moreover, the inhibition at 10 min, 10 µM on CYP2D6 came out at 13%.

Regarding `Cc1ccc(N2C[C@@H](C)O[C@@H](C(=O)NC3CCN(C)CC3)C2)c2cccnc12` [Example 16, (2R,6R)-6-methyl-N-(1-methyl-4-piperidyl)-4-(8-methyl-5-quinolyl)morpholine-2-carboxamide], in data set [1], the “clearance in human liver microsomes” value turned out to be 6.15 mL/min/kg. In addition, the inhibition at 5 min, 10 µM on CYP2C9 was -8%; at CYP3A4 it was 2%. The inhibition at 10 min, 10 µM on CYP2D6 came out at 5%.

For the compound `C[C@@H]1CN(c2ccc(C(F)(F)F)c3ncccc23)C[C@H](C(=O)NC2CC3CNCC32)O1` (single isomer, unassigned) [Example 49B], the “clearance in human liver microsomes” value in data set [1] worked out at 6.15 mL/min/kg. For the same compound, the “CYP inhibition % @10 uM (2C9)” value on CYP2C9 (10 µM) is −2%. Moreover, at CYP2D6 (10 µM), the “CYP inhibition % @10 uM (2D6)” value is listed as −12%. In addition, at CYP3A4 (10 µM), the “CYP inhibition % @10 uM (3A4)” value was −36%.

For orientation: inhibition means the drop in the measured response relative to a control, in per cent.

Values taken from US20220363665A1, “QUINOLINE COMPOUNDS FOR THE TREATMENT OF AUTOIMMUNE DISEASE” (Hoffmann-La Roche Inc., priority 2019, published 2022).
